Measured values reported in patent publication US9232796B2, “Herbicidal compositions comprising 4-amino-3-chloro-5-fluoro-6-(4-chloro-2-fluoro-3-methoxyphenyl) pyridine-2-carboxylic acid or a derivative thereof and acetyl-CoA carboxylase (ACCase) inhibitors” (DOW AGROSCIENCES LLC, priority 2012, dated 2016).

How the values were obtained:
LEFCH = test: Example II in-water applied, greenhouse, transplanted paddy rice weeds; format: in vivo, Leptochloa chinensis (L.) Nees
Protocol: Weed seeds or nutlets of the desired test plant species were planted in puddled soil (mud) prepared by mixing a shredded, non-sterilized mineral soil (50.5 percent silt, 25.5 percent clay, and 24 percent sand, with a pH of about 7.6 and an organic matter content of about 2.9 percent) and water at a 1:1 volumetric ratio. The prepared mud was dispensed in 365 mL aliquots into 16-ounce (oz.) non-perforated plastic pots with a surface area of 86.59 square centimeters (cm^2) leaving a headspace of 3 centimeters (cm) in each pot. Mud was allowed to dry overnight prior to planting or transplanting. Rice seeds were planted in Sun Gro MetroMix® 306 planting mixture, which typically has a pH of 6.0 to 6.8 and an organic matter content of about 30 percent, in plastic plug trays. Seedlings at the second or third leaf stage of growth were transplanted into 860 mL of mud contained in 32-oz. non-perforated plastic pots with a surface area of 86.59 cm^2 4 days prior to herbicide application. The paddy was created by filling the headspace of the pots with 2.5 to 3 cm of water. […] The plants were grown for 4-22 days in a greenhouse with an approximate 14 hr. photoperiod which was maintained at about 29° C. during the day and 26° C. during the night. Nutrients were added as Osmocote® (19:6:12, N:P:K+minor nutrients) at 2 g per 16-oz. pot and 4 g per 32-oz. pot. Water was added on a regular basis to maintain the paddy flood, and supplemental lighting was provided with overhead metal halide 1000-Watt lamps as necessary. The plants were employed for testing when they reached the first through fourth true leaf stage.
Treatments consisted of the acid or esters of 4-amino-3-chloro-5-fluoro-6-(4-chloro-2-fluoro-3-methoxy-phenyl)pyridine-2-carboxylic acid (compound A) each formulated as an SC (suspension concentrate) and various herbicidal components alone and in combination.
(§1) For formulated compounds, a measured amount was placed in an individual 100 or 200 mL glass vial and was dissolved in a volume of 1.25% (v/v) Agri-Dex® crop oil concentrate to obtain application solutions.
(§2) Applications were made by injecting with a pipetter appropriate amounts of the application solutions, individually and sequentially, into the aqueous layer of the paddy. Control plants were treated in the same manner with the solvent blank. Applications were made so that all treated plant material received the same concentrations of acetone and crop oil concentrate.
(§3) The treated plants and control plants were placed in a greenhouse as described above and water was added as needed to maintain a paddy flood. After approximately 3 weeks the condition of the test plants as compared with that of the untreated plants was determined visually and scored on a scale of 0 to 100 percent where 0 corresponds to no injury or growth inhibition and 100 corresponds to complete kill.
(§4) Colby's equation was used to determine the herbicidal effects expected from the mixtures (Colby, S. R. 1967. Calculation of the synergistic and antagonistic response of herbicide combinations. Weeds 15:20-22.).
The following equation was used to calculate the expected activity of mixtures containing two active ingredients, A and B: Expected=A+B−(A×B/100)

ECHOR = test: Example VI in-water applied ternary mixtures, greenhouse, transplanted paddy rice weeds; format: in vivo, Echinochloa oryzoides (Ard.) Fritsch
Protocol: Weed seeds or nutlets of the desired test plant species were planted in puddled soil (mud) prepared by mixing a shredded, non-sterilized mineral soil (50.5 percent silt, 25.5 percent clay, and 24 percent sand, with a pH of about 7.6 and an organic matter content of about 2.9 percent) and water at a 1:1 volumetric ratio. The prepared mud was dispensed in 365 mL aliquots into 16-ounce (oz.) non-perforated plastic pots with a surface area of 86.59 square centimeters (cm^2) leaving a headspace of 3 centimeters (cm) in each pot. Mud was allowed to dry overnight prior to planting or transplanting. Rice seeds were planted in Sun Gro MetroMix® 306 planting mixture, which typically has a pH of 6.0 to 6.8 and an organic matter content of about 30 percent, in plastic plug trays. Seedlings at the second or third leaf stage of growth were transplanted into 860 mL of mud contained in 32-oz. non-perforated plastic pots with a surface area of 86.59 cm^2 4 days prior to herbicide application. The paddy was created by filling the headspace of the pots with 2.5 to 3 cm of water. When required to ensure good germination and healthy plants, a fungicide treatment and/or other chemical or physical treatment was applied. The plants were grown for 4-22 days in a greenhouse with an approximate 14 hr. photoperiod which was maintained at about 29° C. during the day and 26° C. during the night. Nutrients were added as Osmocote® (19:6:12, N:P:K+minor nutrients) at 2 g per 16-oz. pot and 4 g per 32-oz. pot. Water was added on a regular basis to maintain the paddy flood, and supplemental lighting was provided with overhead metal halide 1000-Watt lamps as necessary. The plants were employed for testing when they reached the first through fourth true leaf stage.
Treatments consisted of the benzyl ester of 4-amino-3-chloro-5-fluoro-6-(4-chloro-2-fluoro-3-methoxy-phenyl)pyridine-2-carboxylic acid (Compound A), formulated as an SC (suspension concentrate), an ACCase inhibitor herbicide, and a third herbicidal component, each applied alone and in ternary combination. Forms of compound A were applied on an acid equivalent basis.
The ACCase inhibitor component was applied on an active ingredient basis and included cyhalofop-R-butyl formulated as Clincher® G and metamifop formulated as Metamifop EC. Other herbicidal components were applied on an active ingredient or acid equivalent basis depending on the compound and included penoxsulam formulated as Grasp® SC, bentazon sodium formulated as Basagran®, triclopyr […] (TEA) salt formulated as Grandstand® R, benzobicyclon formulated as Benzobicyclon, benfuresate formulated as Full Slot® WG, pyraclonil formulated as Pyraclon® Flowable, mefenacet (technical grade material), and pretilachlor (technical grade material).
Treatment requirements for each compound or herbicidal component were calculated based upon the rates being tested, the concentration of active ingredient or acid equivalent in the formulation, an application volume of 1 mL per component per pot, and an application area of 86.59 cm^2 per pot.
as §1
For technical grade compounds, a weighed amount was placed in an individual 100 to 200 mL glass vial and was dissolved in a volume of acetone to obtain concentrated stock solutions.
as §2, with “solutions,” for “solutions, individually and sequentially,”
The treated plants and control plants were placed in a greenhouse as described above and water was added as needed to maintain a paddy flood. […]

CYPIR = test: Example V (second) postemergence foliar-applied ternary mixtures, greenhouse, direct seeded rice weeds; format: in vivo, Cyperus iria L.
Protocol: as §3, with “watered by sub-irrigation” for “water was added as needed”, “prevent wash-off of the test compounds.” for “maintain a paddy flood.”, “weeks,” for “weeks”
as §4
The following equation was used to calculate the expected activity of mixtures containing three active ingredients, A, B, and C: Expected=A+B+C−((A×B+A×C+B×C)/100)+(A×B×C/10000)

COc1c(Cl)ccc(-c2nc(C(=O)O)c(Cl)c(N)c2F)c1F [Compound A Acid, 4-amino-3-chloro-6-(4-chloro-2-fluoro-3-methoxyphenyl)-5-fluoropyridine-2-carboxylic acid]
Visual Weed Control (%) - 19 DAA LEFCH Obs (LEFCH; 42.4 gae/ha in-water): 10% | Visual Weed Control (%) - 21 DAA LEFCH Obs (LEFCH; in-water, 17.5 gae/ha): 0% | Visual Weed Control (%) - 21 DAA LEFCH Obs (LEFCH; in-water, 35 gae/ha): 20%

COc1c(Cl)ccc(-c2nc(C(=O)OCc3ccccc3)c(Cl)c(N)c2F)c1F [Compound A Benzyl Ester, benzyl ester of 4-amino-3-chloro-5-fluoro-6-(4-chloro-2-fluoro-3-methoxy-phenyl)pyridine-2-carboxylic acid]
Visual Weed Control (%) - 24 DAA ECHOR Obs (ECHOR; Table 67, 4 gae/ha): 0% | Visual Weed Control (%) - 24 DAA ECHOR Obs (ECHOR; Table 67, 8 gae/ha): 0% | Visual Weed Control (%) - 24 DAA ECHOR Obs (ECHOR; Table 67, 16 gae/ha): 10% | Visual Weed Control (%) - 24 DAA ECHOR Obs (ECHOR; Table 71, 8 gae/ha): 10% | Visual Weed Control (%) - 24 DAA ECHOR Obs (ECHOR; Table 71, 16 gae/ha): 25% | Visual Weed Control (%) - 21 DAA CYPIR Obs (CYPIR; 8 gae/ha): 53% | Visual Weed Control (%) - 22 DAA CYPIR Obs (CYPIR; 8 gae/ha): 37% | Visual Weed Control (%) - 21 DAA CYPIR Obs (CYPIR; 16 gae/ha): 95%

CCCCOC(=O)[C@@H](C)Oc1ccc(Oc2ccc(C#N)cc2F)cc1 [Cyhalofop-butyl, butyl(2R)-2-[4-(4-cyano-2-fluorophenoxy)phenoxy]propanoate, reference compound]
Visual Weed Control (%) - 19 DAA LEFCH Obs (LEFCH; 180 gai/ha, in-water): 75% | Visual Weed Control (%) - 24 DAA ECHOR Obs (ECHOR; Table 67, 90 gai/ha): 25% | Visual Weed Control (%) - 21 DAA CYPIR Obs (CYPIR; 35 gai/ha): 0%

C[C@@H](Oc1ccc(Oc2nc3ccc(Cl)cc3o2)cc1)C(=O)N(C)c1ccccc1F [Metamifop, (2R)-2-[4-[(6-chloro-2-benzoxazolyl)oxy]phenoxy]-N-(2-fluorophenyl)-N-methylpropanamide]
Visual Weed Control (%) - 24 DAA ECHOR Obs (ECHOR; Table 71, 25 gai/ha): 10% | Visual Weed Control (%) - 24 DAA ECHOR Obs (ECHOR; Table 71, 50 gai/ha): 18%

CCC/C(=N\OCC(C)Oc1ccc(Cl)cc1)C1=C(O)CC(C2CCCSC2)CC1=O (stereo not shown) [Profoxydim, 2-[1-[[2-(4-chlorophenoxy)propoxy]imino]butyl]-3-hydroxy-5-(tetrahydro-2H-thiopyran-3-yl)-2-cyclohexen-1-one, reference compound]
Visual Weed Control (%) - 21 DAA LEFCH Obs (LEFCH; in-water, 25 gai/ha): 85% | Visual Weed Control (%) - 22 DAA CYPIR Obs (CYPIR; 3.12 gai/ha): 0% | Visual Weed Control (%) - 22 DAA CYPIR Obs (CYPIR; 6.25 gai/ha): 0%
